Measured values from the NIST ThermoML archive (doi:10.1021/je200886j).
Numbers after ± are expanded uncertainties.

How the values were obtained:
[1] = 101 kPa, Liquid; for mass density: Pycnometric method
[2] = wn = mass fraction of the nth substance listed; conditions: 101 kPa, Liquid; for mass density: Pycnometric method

CCCCn1cc[n+](C)c1.F[B-](F)(F)F [1-butyl-3-methylimidazolium tetrafluoroborate]
[1]
Conditions	mass density [kg/m3]	viscosity [mPa·s]
298.15 K	1200.6 ± 0.7	93.81 ± 2.3
303.15 K	1197.7 ± 0.7	71.76 ± 1.4
308.15 K	1194.8 ± 0.7	56.41 ± 0.85
313.1 K	1191.5 ± 0.7	45.6 ± 0.72
318.15 K	1188.4 ± 0.7	37.32 ± 0.6

CCCCn1cc[n+](C)c1.F[B-](F)(F)F [1-butyl-3-methylimidazolium tetrafluoroborate] + CN1CCCC1=O
[2], w1 = 1
Conditions	mass density [kg/m3]	viscosity [mPa·s]
298.15 K	1200.6 ± 0.7	93.81 ± 2.3
303.15 K	1197.7 ± 0.7	71.76 ± 1.4
308.15 K	1194.8 ± 0.7	56.41 ± 0.85
313.1 K	1191.5 ± 0.7	45.6 ± 0.72
318.15 K	1188.4 ± 0.7	37.32 ± 0.6

CN1CCCC1=O [N-methylpyrrolidone]
[1]
Conditions	mass density [kg/m3]	viscosity [mPa·s]
298.15 K	1028.3 ± 0.6	1.683 ± 0.026
303.15 K	1024.5 ± 0.6	1.558 ± 0.025
308.15 K	1020.1 ± 0.6	1.47 ± 0.023
313.1 K	1015.8 ± 0.6	1.337 ± 0.021
318.15 K	1011.7 ± 0.6	1.248 ± 0.02

CN1CCCC1=O [N-methylpyrrolidone] + CCCCn1cc[n+](C)c1.F[B-](F)(F)F
[2]
Conditions	mass density, 298.15 K [kg/m3]	mass density, 303.15 K [kg/m3]	mass density, 308.15 K [kg/m3]	mass density, 313.1 K [kg/m3]	mass density, 318.15 K [kg/m3]	viscosity, 298.15 K [mPa·s]	viscosity, 303.15 K [mPa·s]	viscosity, 308.15 K [mPa·s]	viscosity, 313.1 K [mPa·s]	viscosity, 318.15 K [mPa·s]
w2 = 0	1028.3 ± 0.6	1024.5 ± 0.6	1020.1 ± 0.6	1015.8 ± 0.6	1011.7 ± 0.6	1.683 ± 0.026	1.558 ± 0.025	1.47 ± 0.023	1.337 ± 0.021	1.248 ± 0.02
w2 = 0.5	1115.6 ± 0.6	1111.8 ± 0.6	1107.9 ± 0.7	1104.1 ± 0.7	1100.3 ± 0.7	8.196 ± 0.22	7.291 ± 0.11	6.382 ± 0.099	5.63 ± 0.087	5.045 ± 0.085
w2 = 0.6999	1148.8 ± 0.7	1145.6 ± 0.7	1142 ± 0.7	1138.3 ± 0.7	1135 ± 0.7	19.33 ± 0.47	16.03 ± 0.25	13.51 ± 0.21	11.63 ± 0.18	10.07 ± 0.15
w2 = 0.8981	1182 ± 0.7	1179.4 ± 0.7	1176.2 ± 0.7	1173.1 ± 0.7	1170.1 ± 0.7	49.46 ± 1.1	39.75 ± 0.63	32.43 ± 0.51	26.93 ± 0.41	22.47 ± 0.31
